Experimental data taken from ChEMBL document CHEMBL1201862, “PubChem BioAssay data set” (2004).
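Exposure lasted 48 hours, with cells grown in 96-well plates and compounds tested at five concentrations. Abbreviation: GI50, concentration required for 50% inhibition of growth.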 Active and inactive are the calls of the source. Rule as the data show it: active = GI50 up to about 1.1 µM and inactive = higher.

How the values were obtained:
Experiment in all cases: NCI-60 cell line screen, 48 h
CCRF-CEM = tested on: CCRF-CEM
TK-10 = tested on: TK-10
SNB-19 = tested on: SNB-19
SK-OV-3 = tested on: SK-OV-3
M14 = tested on: M14
IGROV-1 = tested on: IGROV-1
BT-549 = tested on: BT-549
NCI-H23 = tested on: NCI-H23
EKVX = tested on: EKVX
PC-3 = tested on: PC-3
K562 = tested on: K562
MDA-N = tested on: MDA-N
SNB-75 = tested on: SNB-75
UO-31 = tested on: UO-31
SK-MEL-5 = tested on: SK-MEL-5
HOP-92 = tested on: HOP-92
A498 = tested on: A498
A549 = tested on: A549
COLO 205 = tested on: COLO 205

SMILES	GI50 (CCRF-CEM)	GI50 (TK-10)	GI50 (SNB-19)	GI50 (SK-OV-3)	GI50 (M14)	GI50 (IGROV-1)	GI50 (BT-549)	GI50 (NCI-H23)	GI50 (EKVX)	GI50 (PC-3)	GI50 (K562)	GI50 (MDA-N)	GI50 (SNB-75)	GI50 (UO-31)	GI50 (SK-MEL-5)	GI50 (HOP-92)	GI50 (A498)	GI50 (A549)	GI50 (COLO 205)
NC(=O)C(Nc1c(Cl)cccc1Cl)c1cc2cc(Br)ccc2nc1Cl (centres undefined)	33.2 µM (inactive)	34.6 µM (inactive)	74.3 µM (inactive)	> 100 µM (inactive)	33 µM (inactive)	28.1 µM (inactive)	36.8 µM (inactive)	44.6 µM (inactive)	25.8 µM (inactive)	38.9 µM (inactive)	29.4 µM (inactive)	27.6 µM (inactive)	> 100 µM (inactive)	55 µM (inactive)	37.5 µM (inactive)	37.7 µM (inactive)	> 100 µM (inactive)	63.1 µM (inactive)	24.4 µM (inactive)
C/C(=N/NC(=S)N(C)C)c1ccccc1O	2.88 µM (inactive)	13.3 µM (inactive)	> 59.8 µM (inactive)	> 44.5 µM (inactive)	7.35 µM (inactive)	5.98 µM (inactive)	10.4 µM (inactive)	20.7 µM (inactive)	29.1 µM (inactive)	10.1 µM (inactive)	19.1 µM (inactive)	11.9 µM (inactive)	6.82 µM (inactive)	8.67 µM (inactive)	7.67 µM (inactive)	> 75.2 µM (inactive)	36.1 µM (inactive)	7.87 µM (inactive)	13.7 µM (inactive)
COC(=O)c1cc(C#N)[nH]c1-c1cc(Br)cs1	13.8 µM (inactive)	20.3 µM (inactive)	15 µM (inactive)	13.4 µM (inactive)	14.3 µM (inactive)	13.4 µM (inactive)	12.9 µM (inactive)	6.67 µM (inactive)	16.1 µM (inactive)	12.2 µM (inactive)	20.3 µM (inactive)	15.4 µM (inactive)	2.69 µM (inactive)	10 µM (inactive)	7.73 µM (inactive)	3.61 µM (inactive)	4.97 µM (inactive)	10.5 µM (inactive)	14.3 µM (inactive)
Cc1cnc2nc(-c3ccc(Cl)cc3)cc(O)c2c1	4.44 µM (inactive)	43.2 µM (inactive)	5.35 µM (inactive)	18.4 µM (inactive)	5.81 µM (inactive)	5.66 µM (inactive)	9.95 µM (inactive)	29.4 µM (inactive)	18.5 µM (inactive)	2.12 µM (inactive)	1.07 µM (active)	0.959 µM (active)	5.14 µM (inactive)	8.59 µM (inactive)	2.49 µM (inactive)	2.32 µM (inactive)	5.48 µM (inactive)	5.05 µM (inactive)	4.31 µM (inactive)
COc1ccc(NC(=O)C(=O)C(CC2C(=O)NC(=S)NC2=O)C(=O)c2ccc3ccccc3c2)c([N+](=O)[O-])c1 (centres undefined)	8.99 µM (inactive)	> 100 µM (inactive)	> 100 µM (inactive)	> 100 µM (inactive)	> 100 µM (inactive)	> 100 µM (inactive)	> 100 µM (inactive)	> 100 µM (inactive)	> 100 µM (inactive)	> 100 µM (inactive)	> 100 µM (inactive)	> 100 µM (inactive)	> 100 µM (inactive)	> 100 µM (inactive)	> 100 µM (inactive)	> 100 µM (inactive)	> 100 µM (inactive)	> 100 µM (inactive)	> 100 µM (inactive)
CC(C)=CCC(O)C1=CC(=O)c2c(O)ccc(O)c2C1=O (centres undefined)	0.075 µM (active)	1.53 µM (inactive)	2.36 µM (inactive)	11.7 µM (inactive)	1.16 µM (inactive)	1.64 µM (inactive)	1.58 µM (inactive)	1.13 µM (inactive)	1.54 µM (inactive)	2.23 µM (inactive)	0.191 µM (active)	0.805 µM (active)	5.04 µM (inactive)	1.38 µM (inactive)	0.301 µM (active)	0.641 µM (active)	1.96 µM (inactive)	4.82 µM (inactive)	0.171 µM (active)
CCOC(=O)/C=C/C1OC(C)(C)OC1/C=C/C(=O)OCC (centres undefined)	17.2 µM (inactive)	39.3 µM (inactive)	33.9 µM (inactive)	> 100 µM (inactive)	37.7 µM (inactive)	31.3 µM (inactive)	54.8 µM (inactive)	40.6 µM (inactive)	29.8 µM (inactive)	44.9 µM (inactive)	21.4 µM (inactive)	35.1 µM (inactive)	22.6 µM (inactive)	> 100 µM (inactive)	38.4 µM (inactive)	19.4 µM (inactive)	42 µM (inactive)	40.9 µM (inactive)	30.6 µM (inactive)
O=c1o[nH]/c(=N/c2ccccc2)n1-c1ccccc1	> 100 µM (inactive)	> 100 µM (inactive)	> 100 µM (inactive)	> 100 µM (inactive)	> 100 µM (inactive)	> 100 µM (inactive)	> 100 µM (inactive)	> 100 µM (inactive)	> 100 µM (inactive)	> 100 µM (inactive)	> 100 µM (inactive)	> 100 µM (inactive)	> 100 µM (inactive)	> 100 µM (inactive)	> 100 µM (inactive)	> 100 µM (inactive)	> 100 µM (inactive)	> 100 µM (inactive)	> 100 µM (inactive)
C1COC(NC(C2CC2)C2CC2)=N1 [RILMENIDINE]	> 100 µM (inactive)	> 100 µM (inactive)	> 100 µM (inactive)	> 100 µM (inactive)	> 100 µM (inactive)	> 100 µM (inactive)	> 100 µM (inactive)	> 100 µM (inactive)	> 100 µM (inactive)	> 100 µM (inactive)	> 100 µM (inactive)	> 100 µM (inactive)	31.1 µM (inactive)	> 100 µM (inactive)	> 100 µM (inactive)	> 100 µM (inactive)	> 100 µM (inactive)	> 100 µM (inactive)	> 100 µM (inactive)
O=C(O)c1ccccc1C(=O)OCC1CCCN2CCCCC12 (centres undefined)	> 100 µM (inactive)	> 100 µM (inactive)	> 100 µM (inactive)	> 100 µM (inactive)	> 100 µM (inactive)	> 100 µM (inactive)	> 100 µM (inactive)	> 100 µM (inactive)	> 100 µM (inactive)	> 100 µM (inactive)	> 100 µM (inactive)	> 100 µM (inactive)	> 100 µM (inactive)	> 100 µM (inactive)	> 100 µM (inactive)	> 100 µM (inactive)	> 100 µM (inactive)	> 100 µM (inactive)	> 100 µM (inactive)
CC(=C(C(N)=O)C(N)=O)C1C=C(c2cccs2)CC(c2ccc(Cl)cc2)=C1O (centres undefined)	26.2 µM (inactive)	45.3 µM (inactive)	77.8 µM (inactive)	> 100 µM (inactive)	42.5 µM (inactive)	35 µM (inactive)	16.1 µM (inactive)	> 100 µM (inactive)	> 100 µM (inactive)	9.55 µM (inactive)	25 µM (inactive)	35.1 µM (inactive)	90.6 µM (inactive)	16.4 µM (inactive)	20.3 µM (inactive)	85.9 µM (inactive)	21.5 µM (inactive)	88.7 µM (inactive)	42 µM (inactive)
